Our source for the IC50 values is patent US20100099676A1 (SHIONOGI & CO., LTD., priority 2006, published 2010).

Holding throughout (test): Enzyme inhibiting activity of MMPs, fluorogenic peptide substrate
What all share (assay type): biochemical

One experiment deals with T1, MMP-2 (Homo sapiens, UniProt P08253).
T1 construct: purchased Calbiochem (EMD/MERCK Biosciences)
T1 sequence (P08253 110-660): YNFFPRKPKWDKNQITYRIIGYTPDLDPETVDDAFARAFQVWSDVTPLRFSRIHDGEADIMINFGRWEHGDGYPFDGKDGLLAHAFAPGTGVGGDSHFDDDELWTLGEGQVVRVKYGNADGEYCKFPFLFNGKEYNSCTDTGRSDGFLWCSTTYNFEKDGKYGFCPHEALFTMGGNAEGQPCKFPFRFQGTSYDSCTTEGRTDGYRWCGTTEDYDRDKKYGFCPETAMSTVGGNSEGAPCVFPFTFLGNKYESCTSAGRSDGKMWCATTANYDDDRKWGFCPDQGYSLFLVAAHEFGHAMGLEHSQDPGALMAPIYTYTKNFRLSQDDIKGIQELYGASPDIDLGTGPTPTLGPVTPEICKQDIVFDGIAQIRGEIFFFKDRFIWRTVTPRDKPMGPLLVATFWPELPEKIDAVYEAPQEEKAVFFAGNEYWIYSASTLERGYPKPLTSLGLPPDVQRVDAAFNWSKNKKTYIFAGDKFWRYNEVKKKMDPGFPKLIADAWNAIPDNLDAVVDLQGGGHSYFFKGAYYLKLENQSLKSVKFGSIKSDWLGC
To be noted: substrate MOCAc-Pro-Leu-Gly-Leu-A2Pr(DNP)-Ala-Arg-NH2, fluorescent intensity. Summed up:
(§1)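 Recombinant human enzymes with the fluorogenic substrate MOCAc-Pro-Leu-Gly-Leu-A2Pr(DNP)-Ala-Arg-NH2. Fluorescence was read for enzyme+substrate±inhibitor and substrate±inhibitor blanks.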

For the next experiment, the target named is T2, MMP-9 (Homo sapiens, UniProt P14780).
T2 construct: purchased Calbiochem (EMD/MERCK Biosciences)
To be noted: substrate MOCAc-Pro-Leu-Gly-Leu-A2Pr(DNP)-Ala-Arg-NH2, fluorescent intensity. Put shortly:
as §1

For another experiment, the target named is T3, MMP-13 (Homo sapiens, UniProt P45452).
T3 construct: purchased Calbiochem (EMD/MERCK Biosciences)
To be noted: APMA-activated proenzyme; substrate MOCAc-Pro-Leu-Gly-Leu-A2Pr(DNP)-Ala-Arg-NH2, fluorescent intensity; read-out: IC50 MMP-13. Put shortly:
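Pro-MMP-13 was activated with 1 mM APMA at 37° C for 2 h in 50 mM Tris-HCl pH 7.6, 0.3 M NaCl, 10 mM CaCl2, 0.005% Brij35. Activity was read by fluorescence using MOCAc-Pro-Leu-Gly-Leu-A2Pr(DNP)-Ala-Arg-NH2 substrate, with enzyme and inhibitor blank corrections. IC50 is the concentration giving 50% inhibition.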

T2 sequence (P14780 94-707): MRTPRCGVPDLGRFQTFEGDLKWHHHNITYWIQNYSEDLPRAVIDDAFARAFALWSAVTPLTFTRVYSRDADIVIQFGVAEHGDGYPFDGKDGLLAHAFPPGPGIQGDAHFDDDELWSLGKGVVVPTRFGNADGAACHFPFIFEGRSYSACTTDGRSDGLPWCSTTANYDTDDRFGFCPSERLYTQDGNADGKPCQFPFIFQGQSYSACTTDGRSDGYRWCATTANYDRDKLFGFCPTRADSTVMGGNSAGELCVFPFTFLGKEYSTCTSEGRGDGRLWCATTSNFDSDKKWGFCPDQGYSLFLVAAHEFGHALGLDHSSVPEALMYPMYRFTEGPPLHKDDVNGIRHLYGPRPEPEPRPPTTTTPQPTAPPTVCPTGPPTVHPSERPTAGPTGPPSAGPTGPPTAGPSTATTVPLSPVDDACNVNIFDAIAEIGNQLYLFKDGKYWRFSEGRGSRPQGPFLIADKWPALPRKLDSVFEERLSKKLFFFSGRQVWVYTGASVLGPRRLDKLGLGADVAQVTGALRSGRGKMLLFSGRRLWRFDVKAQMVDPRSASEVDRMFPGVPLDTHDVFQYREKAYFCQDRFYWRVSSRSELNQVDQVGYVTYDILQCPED

Consider `CC(C)CO/N=C/c1c[nH]c2ccc(C#Cc3ccc(N4CCN(S(=O)(=O)N[C@H](C)C(=O)O)CC4)cc3)cc12` [Compound V-43, (R)-2-(4-{4-[3-((E)-isobutoxyiminomethyl)-1H-indol-5-ylethynyl]-phenyl}-piperazine-1-sulfonylamino)-proponic acid], for which the figures for the IC50 against MMP-2, against MMP-9 and at MMP-13 were > 10000 nM, > 10000 nM and 19 nM, respectively.

In the case of `C[C@@H](NS(=O)(=O)N1CCN(c2ccc(C#Cc3ccc4c(c3)c(/C=C/C#N)cn4C)cc2)CC1)C(=O)O` [Compound I-114, (R)-2-(4-{4-[3-((E)-2-cyanovinyl)-1-methyl-1H-indol-5-ylethynyl]-phenyl}-piperazine-1-sulfonylamino)-proponic acid], the values for the IC50 on MMP-2, at MMP-9 and at MMP-13 were 1000 to 10000 nM, > 10000 nM and 11 nM, respectively.

With `C[C@@H](NS(=O)(=O)N1CCN(c2ccc(C#Cc3ccc4c(c3)C(=O)N(Cc3ccccc3)CCN4C)cc2)CC1)C(=O)O` [Compound V-52, (R)-2-{4-[4-(4-benzyl1-methyl-5-oxo-2,3,4,5-tetrahydro1H-benzo[e][1,4]diazepin-7-ylethynyl)-phenyl]-piperazine-1-sulfonylamino}-proponic acid], the figures for the IC50 on MMP-2, against MMP-9 and on MMP-13 were 1000 to 10000 nM, 1000 to 10000 nM and 12 nM, respectively.

Take `CC(C)[C@@H](NS(=O)(=O)N1CCN(c2ccc(C#Cc3ccnc(C(=O)NCc4ccc(CNC(=O)OC(C)(C)C)cc4)c3)cc2)CC1)C(=O)O` [III-223, (R)-2-[4-(4-{2-[4-(tert-butoxycarbonylaminomethyl)-benzylcarbamoyl]-pyridin-4-ylethynyl}-phenyl)-piperazine-1-sulfonylamino]-3-methylbutanoic acid]: the half-inhibitory concentration (IC50) against MMP-2 is 1000 to 10000 nM; at MMP-9, > 10000 nM; on MMP-13, 17 nM.

As for `Cc1cccc(CNC(=O)c2cc(C#Cc3ccc(N4CCN(S(=O)(=O)N[C@@H](C(=O)O)C(C)C)CC4)cc3)ccn2)c1` [III-186, (R)-3-methyl-2-(4-{4-[2-(3-methylbenzylcarbamoyl)-pyridin-4-ylethynyl]-phenyl}-piperazine-1-sulfonylamino)-butanoic acid], the concentration for half-maximal inhibition (IC50) on MMP-2 was 1000 to 10000 nM; on MMP-9, > 10000 nM; on MMP-13, 12 nM.

In the case of `CCC(=O)c1cccc2ccc(C#Cc3ccc(N4CCN(S(=O)(=O)N[C@H](C)C(=O)O)CC4)cc3)cc12` [III-86, (R)-2-{4-[4-(8-propionylnaphthalen-2-ylethynyl)-phenyl]-piperazine-1-sulfonylamino}-proponic acid], the concentration for half-maximal inhibition (IC50) on MMP-2 was 1000 to 10000 nM; on MMP-9, > 10000 nM; on MMP-13 it was 9 nM.

As for `COc1ccc(CNC(=O)c2cc(C#Cc3ccc(N4CCN(S(=O)(=O)N[C@@H](C(=O)O)C(C)C)CC4)cc3)cn(C)c2=O)cc1` [III-172, (R)-2-(4-{4-[5-(4-methoxybenzylcarbamoyl)-1-methyl-6-oxo-1,6-dihydropyridin-3-yllethynyl]-phenyl}-piperazine-1-sulfonylamino)-3-methylbutanoic acid], the IC50 against MMP-2 was > 10000 nM; at MMP-9, > 10000 nM; on MMP-13, 10 nM.

On to `CC(C)[C@H](NS(=O)(=O)N1CCN(c2ccc(C#Cc3ccnc(C(=O)NCc4ccc(Cl)cc4)c3)cc2)CC1)C(=O)O` [III-69, (S)-2-(4-{4-[2-(4-chrolobenzylcarbamoyl)-pyridin-4-ylethynyl]-phenyl}-piperazine-1-sulfonylamino)-3-methylbutanoic acid], for which the IC50 on MMP-2 is > 10000 nM; against MMP-9, > 10000 nM; at MMP-13 it was 7 nM.

On to `C[C@@H](NS(=O)(=O)N1CCN(c2ccc(C#Cc3ccnc(C(=O)NCc4ccc5c(c4)oc(=O)n5C)c3)cc2)CC1)C(=O)O` [Compound V-2, (R)-2-[4-(4-{2-(3-methyl-2-oxo-2,3-dihydrobenzoxazol-6-ylmethyl)-carbamoyl]-pyridin-4-ylethynyl}-phenyl)-piperazine-1-sulfonylaminol-proponic acid], for which the values for the IC50 against MMP-2, on MMP-9 and on MMP-13 were 1000 nM, > 10000 nM and 1 nM, respectively.

For the molecule `CC(C)[C@@H](NS(=O)(=O)N1CCN(c2ccc(C#Cc3ccnc(C(=O)NCc4ccc(C(F)(F)F)cc4)c3)cc2)CC1)C(=O)O` [III-194, (R)-3-methyl-2-(4-{4-[2-(4-trifluoromethylbenzylcarbamoyl)-pyridin-4-ylethynyl]-phenyl}-piperazine-1-sulfonylamino)-butanoic acid], the 50% inhibitory concentration (IC50) was > 10000 nM at MMP-2, > 10000 nM at MMP-9 and 26 nM on MMP-13.

Regarding `COc1ccc(CNC(=O)c2cc(/C=C/c3ccc(N4CCN(S(=O)(=O)N[C@@H](C(=O)O)C(C)C)CC4)cc3)ccn2)cc1` [III-161, (R)-2-[4-(4-{(E)-2-[2-(4-methoxybenzylcarbamoyl)-pyridin-4-yl]-vinyl}-phenyl)-piperazine-1-sulfonylamino]-3-methylbutanoic acid], the IC50 is 1000 to 10000 nM on MMP-2, > 10000 nM at MMP-9 and 5 nM at MMP-13.

`C[C@@H](NS(=O)(=O)N1CCN(c2ccc(C#Cc3ccc4cccc(C(=O)N5CCOCC5)c4c3)cc2)CC1)C(=O)O` [Compound I-33, (R)-2-(4-{4-[8-(morpholine-4-carbonyl)-naphthalen-2-ylethynyl]-phenyl}-piperazine-1-sulfonylamino)-proponic acid]: the concentration for half-maximal inhibition (IC50) was 1000 to 10000 nM on MMP-2, > 10000 nM on MMP-9 and 11 nM at MMP-13.

Consider “(R)-3-methyl-2-{4-[4-(1-methyl2,4-dioxo-3-pyridin-4-ylmethyl-1,2,3,4-tetrahydroquinazolin-6-ylethynyl)-phenyl]-piperazine-1-sulfonylamino}-3-methylbutanoic acid [Compound V-77]”, for which the half-maximal inhibitory concentration (IC50) against MMP-2 was > 10000 nM; against MMP-9 it was > 10000 nM; on MMP-13, 4 nM.

On to `COc1ccc(CNC(=O)c2cc(C#Cc3ccc(N4CCN(S(=O)(=O)NC(C)(C)C(=O)O)CC4)cc3)ccn2)cc1` [Compound V-7, 2-(4-{4-[2-(4-methoxybenzylcarbamoyl)-pyridin-4-ylethynyl]-phenyl}-piperazine-1-sulfonylamino)-2-methylproponic acid], for which the values for the half-inhibitory concentration (IC50) against MMP-2, against MMP-9 and at MMP-13 were 1000 to 10000 nM, > 10000 nM and 12 nM, respectively.

In the case of `CC(C)[C@@H](NS(=O)(=O)N1CCN(c2ccc(C#Cc3ccc4ccn(Cc5ccc(S(C)(=O)=O)cc5)c(=O)c4c3)cc2)CC1)C(=O)O` [III-170, (R)-2-(4-{4-[2-(4-methanesulfonylbenzyl)-1-oxo-1,2-dihydroisoquinolin-7-ylethynyl)-phenyl]-piperazine-1-sulfonylamino}-3-methylbutanoic acid], the concentration for half-maximal inhibition (IC50) was 1000 to 10000 nM against MMP-2, > 10000 nM at MMP-9 and 4 nM at MMP-13.

Consider `CCc1cnc(-c2cc(C#Cc3ccc(N4CCN(S(=O)(=O)N[C@H](C)C(=O)O)CC4)cc3)ccc2OCCOC)o1` [Compound V-23, (R)-2-(4-{4-[3-(5-ethyloxazol-2-yl)-4-(2-methoxyethoxy)-phenylethynyl]-phenyl}-piperazine-1-sulfonylamino)-proponic acid], for which the results for the 50% inhibitory concentration (IC50) at MMP-2, against MMP-9 and at MMP-13 were 1000 to 10000 nM, > 10000 nM and 4 nM, respectively.

Turning to `C/C=C/c1cccc2ccc(C#Cc3ccc(N4CCN(S(=O)(=O)N[C@H](C)C(=O)O)CC4)cc3)cc12` [III-38, (R)-2-(4-{4-[((E)-8-propenyl)-naphthalen-2-ylethynyl]-phenyl}-piperazine-1-sulfonylamino)-proponic acid], the 50% inhibitory concentration (IC50) on MMP-2 is > 10000 nM; against MMP-9, > 10000 nM; on MMP-13 it was 29 nM.

`CC(C)[C@@H](NS(=O)(=O)N1CCN(c2ccc(C#Cc3ccnc(C(=O)NCc4ccc(S(N)(=O)=O)cc4)c3)cc2)CC1)C(=O)O` [III-201, (R)-3-methyl-2-(4-{4-[2-(4-sulfamoylbenzylcarbamoyl)-pyridin-4-ylethynyl]-phenyl}-piperazine-1-sulfonylamino)-butanoic acid]: the IC50 at MMP-2 was 100 to 1000 nM; against MMP-9, > 10000 nM; on MMP-13 it was 1 nM.

As for `CC(C)[C@@H](NS(=O)(=O)N1CCN(c2ccc(C#Cc3ccnc(C(=O)NCc4ccc(C(C)(C)C)cc4)c3)cc2)CC1)C(=O)O` [III-154, (R)-2-(4-{4-[2-(4-tert-butylbenzylcarbamoyl)-pyridin-4-ylethynyl]-phenyl}-piperazine-1-sulfonylamino)-3-methylbutanoic acid], the IC50 against MMP-2 was > 10000 nM; at MMP-9, > 10000 nM; on MMP-13 it was 21 nM.
